The source of these data is patent US5817669A, “Compounds, processes for the preparation thereof and anti-tumor agents” (Dainippon Pharmaceutical Co., Ltd., priority 1994, dated 1998).

In brackets after ≈: the same amount, converted by molar mass. Read-outs that look alike come from different tables or passages of the source.

In test [1] the test system is KB human nasopharynx cancer. As to the kind of experiment: In vitro anti-tumor activity against KB human nasopharynx cancer (MTT). The format is cell-based. The note with it: KB, 72 h, MTT, read-out: IC50. The procedure:
(§1) A culture medium containing 500 to 2,000 human cancer cells was put in an amount of 0.1 ml in each well of 96-well plate, and the cells were cultured for 20 hours under a condition of 37° C. and 5% carbon dioxide gas in air. After the culturing, a solution of test compounds of predetermined concentration was added, and then, the cells were cultured for further 72 hours. After the culturing, an MTT (5 mg/ml) solution was added in an amount of 0.01 ml in the respective wells, and the cells were cultured for further 4 hours. The supernatants of the culture medium were removed by suction, and then, 0.1 ml of dimethyl sulfoxide was put in respective well to dissolve the formed formazan, and, moreover, 0.1 ml of dimethyl sulfoxide was added.

The test system of test [2] is WiDr human colorectal cancer. As to the kind of experiment: In vitro anti-tumor activity against WiDr human colorectal cancer (MTT). Type of test: cell-based. The following applies: 72 h, MTT, read-out: IC50. The procedure: as §1
A further test has as its system A427 human lung cancer. As to the kind of experiment: In vitro anti-tumor activity against A-427 human lung cancer (MTT). Type of test: cell-based. The note with it: A-427, 72 h, MTT, read-out: IC50. Here is the method:
as §1

In test [3] the test system is murine P388 lymphocytic leukemia cells. As to the kind of experiment: In vitro anti-tumor activity against murine P388 lymphocytic leukemia cells (MTT, 72 h). The format is cell-based. The note with it: Mus musculus; murine P388 cells, 72 h, MTT; read-out: IC50 (50% proliferation inhibitory concentration). The procedure: Test compounds were tested for anti-tumor activity according to MTT [3-(4,5-dimethylthiazol-2-yl)-2,5-diphenyltetrazolium bromide] method, using murine P388 lymphocytic leukemia cells. […] The culture medium was centrifuged (4° C., 2,000 rpm for 20 minutes), and thus, the supernatants were removed by suction. Then, 0.1 ml of dimethyl sulfoxide was put in each well to dissolve the formed formazan, and, subsequently, another 0.1 ml of dimethyl sulfoxide was added. The absorbance (OD) of each of the obtained solutions was measured by use of Multiskan Bichromatic (main wavelength 570 nm, sub-wavelength 690 nm). […] IC50 :μg/ml) were calculated by the least squares method.

Test [4] has as its system MKN45 human stomach cancer. Kind of test: In vitro anti-tumor activity against MKN45 human stomach cancer (MTT). The note with it: MKN-45, MKN45, 72 h, MTT, read-out: IC50. Type of test: cell-based. The procedure: as §1
Test [5] has as its system colon 26 murine tumor cells. Kind of test: Tumor growth inhibition effect on colon 26 murine tumor cells implanted mice. The format is in vivo, SLC: CDF1 mice. The following applies: for inhibition in vivo at 3.13 mg/kg: 3.13 mg/kg once a day. Here is the method: A 2% brei of colon 26 murine tumor cells was intracutaneously implanted each 0.1 ml in the abdominal part of SLC: CDF1 female mice (7 to 9 weeks old, 7 animals per one group). […] The obtained solutions were intraperitoneally (ip) administered each 0.2 ml once a day, from the day (1st day) following the implantation to the 9th day. On the 21st or 22nd day after the implantation, tumor weight was estimated from tumor diameters, and thus, the tumor growth inhibition rate (IR %) of the drug administered group in comparison with the control group was calculated according to the following equation. IR (%)=[1-{(MTW in the treated group)/(MTW in the control group)}]×10 0 MTW: mean tumor weight

In test [6] the test system is AZ521 human stomach cancer. Kind of test: In vitro anti-tumor activity against AZ-521 human stomach cancer (MTT). The following applies: AZ-521, 72 h, MTT, read-out: IC50. Type of test: cell-based. Here is the method:
as §1

Another test deals with C33A human cervix cancer. As to the kind of experiment: In vitro anti-tumor activity against C-33A human cervix cancer (MTT). The format is cell-based. The following applies: C-33A, 72 h, MTT, read-out: IC50. The procedure:
as §1

Test [7] relates to murine P388 lymphocytic leukemia cells. Kind of test: Increases in life span of mice implanted with murine P388 lymphocytic leukemia cells. Type of test: in vivo, SLC: BDF1 mice. The note with it: Mus musculus, P388, ip, 720 h, ip. Here is the method: 1×10^6 murine P388 lymphocytic leukemia cells were intraperitoneally implanted in each of SLC: BDF1 mice (8 to 10 weeks old, female, 7 animals per one group). A test compound (drug) was either dissolved in 0.1 N--NaOH or suspended in 0.4% carboxymethylcellulose solution, and the resultant solution or suspension was diluted with distilled water or 0.4% carboxymethylcellulose solution so as to give predetermined concentrations for administration. The obtained solution was intraperitoneally (ip) administered twice, namely on the day following the implantation (1st day) and the 5th day, each 0.2 ml. The life and death of the mice were observed over a period of 30 days, and the median survival time (hereinafter referred to as MST) was determined for each group, and, thus, the increase in life span (ILS; %) was calculated according to the following equation:
ILS (%)=[{(MST of the test group)/(MST of the control group)}-1]×100
Drug effect was judged in the following manner, according to the criterion of U.S. National Cancer Institute (NCI):
ILS=75% or higher: ++ (remarkably effective);
20 to 74%: + (effective);
19% or lower: - (ineffective)

For another test, the system named is HMV2 human melanoma. Kind of test: In vitro anti-tumor activity against HMV-2 human melanoma (MTT). Type of test: cell-based. The note with it: HMV-2, 72 h, MTT, read-out: IC50. Here is the method:
as §1

Setting [8] is: Mus musculus, Colon 26, 504 h, ip, days 1-9, day 21 or 22, read-out: Tumor growth inhibition rate IR (%).
Where [9] appears, read: NCI criterion, read-out: Evaluation.
The mark [10] stands for this setting: days 1 and 5, in suspension, read-out: ILS (%) (in suspension).
The mark [11] stands for this setting: days 1 and 5, in solution, read-out: ILS (%) (in solution).

On to `Cl.Nc1cc(N2CCC(N)C2)nc2c1c(=O)c(C(=O)O)cn2-c1nccs1` (stereo not shown) [Compound 9, 5-Amino-7-(3-amino-1-pyrrolidinyl)-1,4-dihydro-4-oxo-1-(2-thiazolyl)-1,8-naphthyridine-3-carboxylic acid hydrochloride], for which the IC50 in [1] was found to be 0.106 µg/mL; in test [2] it was 0.412 µg/mL; in the test on A427 human lung cancer, 0.1 µg/mL; in [3] it was 0.00809 µg/mL; in [4], 0.148 µg/mL; in [6] it was 0.0625 µg/mL. For the same molecule, the IC50 with C33A human cervix cancer was found to be 0.151 µg/mL; in the test with HMV2 human melanoma, 0.211 µg/mL. The inhibition in vivo at 3.13 mg/kg in test [5] (setting [8]) was 62%. In addition, in [5] (Mus musculus, Colon 26, 504 h, ip, 6.25 mg/kg once a day, days 1-9, day 21 or 22, read-out: Tumor growth inhibition rate IR (%)), the inhibition in vivo at 6.25 mg/kg was 97%. For the same molecule, the ILS at 3.13 mg/kg in [7] (setting [9]) is over 75%; in test [7] (setting [10]), 100%. Moreover, the ILS at 12.5 mg/kg is over 75% in [7] (setting [9]) and 125% in test [7] (setting [10]). The ILS at 50 mg/kg in test [7] (setting [9]) was over 75%; in [7] (setting [10]) it was 250%.

For `CC1(N)CCN(c2ccc3c(=O)c(C(=O)O)cn(-c4nccs4)c3n2)C1` (stereo not shown) [Compound 10], the IC50 is 0.19 µg/mL (≈ 0.512 µM) in test [1]; 0.797 µg/mL (≈ 2.15 µM) in test [2]; 0.153 µg/mL (≈ 0.412 µM) with A427 human lung cancer; 0.0192 µg/mL (≈ 0.0517 µM) in test [3]; 0.468 µg/mL (≈ 1.26 µM) in [4]; 0.292 µg/mL (≈ 0.786 µM) in [6]. Moreover, the IC50 in the test with C33A human cervix cancer turned out to be 0.247 µg/mL (≈ 0.665 µM); with HMV2 human melanoma, 0.386 µg/mL (≈ 1.04 µM). For the same molecule, in [5] (setting [8]), the inhibition in vivo at 3.13 mg/kg turned out to be 74%. Further, the ILS at 3.13 mg/kg in [7] (setting [9]) was 20 to 74%; in test [7] (setting [11]), 63%; in [7] (setting [10]), 50%. Besides, the ILS at 6.25 mg/kg in test [7] (setting [9]) is over 75%; in [7] (setting [11]), 75%. For the same molecule, the ILS at 12.5 mg/kg is over 75% in test [7] (setting [9]), 100% in test [7] (setting [11]) and 113% in test [7] (setting [10]). In addition, the ILS at 25 mg/kg was over 75% in test [7] (setting [9]) and 125% in test [7] (setting [11]). Besides, the ILS at 50 mg/kg in [7] (setting [9]) was over 75%; in test [7] (setting [11]), over 275%.

Take `O=C(O)c1cn(-c2nccs2)c2nc(N3CCCC3)c(F)cc2c1=O` [Compound A, reference compound]: the IC50 in test [1] is 1.94 µg/mL (≈ 5.38 µM); in test [2], 4.09 µg/mL (≈ 11.3 µM); in the test with A427 human lung cancer, 0.854 µg/mL (≈ 2.37 µM); in test [3], 0.0942 µg/mL (≈ 0.261 µM); in test [4] it was 1.27 µg/mL (≈ 3.52 µM); in [6], 0.797 µg/mL (≈ 2.21 µM). The IC50 in the test with C33A human cervix cancer was determined as 0.651 µg/mL (≈ 1.81 µM); with HMV2 human melanoma, 2.88 µg/mL (≈ 7.99 µM). For the same molecule, the inhibition in vivo at 12.5 mg/kg in test [5] (Mus musculus, Colon 26, 504 h, ip, 12.5 mg/kg once a day, days 1-9, day 21 or 22, read-out: Tumor growth inhibition rate IR (%)) is 23%. The “tumor growth inhibition (IR), colon 26, in words” value in [5] (in words) is “apparently inferior to the compounds of this invention in view of both doses and inhibition rates”. For the same molecule, the values for the ILS at 25 mg/kg in [7] (setting [9]) and in test [7] (setting [11]) were 20 to 74% and 25%, respectively. The ILS at 50 mg/kg in test [7] (setting [9]) is 20 to 74%; in [7] (setting [11]) it was 38%. Also, the ILS at 12.5 mg/kg in test [7] (setting [11]) worked out at 0%.
